Assay results published in patent publication US20260191793A1, “HBV SPECIFIC EXOSOMES AND USES THEREOF” (priority 2022, published 2026).

Assays:
Format in all cases: cell-based, Hepatitis B virus (HBV)
HBV in HepG2-NTCP cells = assay: Infection of HepG2-NTCP cells with supernatants of gRNA/Cas9-transfected HepDE19 cells (infectious HBV particles); settings: HepG2-NTCP infected with supernatants of transfected HepDE19 cells, vs supernatants of gRNAc-transfected cells, qPCR
Experimental: To characterize the effects of synthetic gRNA5/Cas9 and gRNA9/Cas9 on HBV replication, the ability of HBV particles derived from HepDE19 cells that have been transfected with gRNA5, gRNA9, or gRNAc RNPs for 3 days to infect HepG2-NTCP cells was assessed. HepG2-NTCP cells were infected for 6 days with supernatants harvested from HepDE19 cells. Genomic DNA was isolated from HepG2-NTCP cells and used for qPCR quantification of HBV DNA.
HBV infectious particles were harvested from the supernatants of gRNA/Cas9-treated HepDE19 cells and used for the infection of HepG2-NTCP cells following a previously published method. Briefly, the supernatants of gRNA RNP-treated HepDE19 cells were harvested and concentrated using a PEG concentration kit (Cat #ab102538, Abcam, Waltham, MA). For HBV infection, 2.5×10^5 HepG2-NTCP cells were seeded in a 12-well plate and mixed with 10 μl concentrated HBV supernatants in 1 ml hepatocyte maintenance medium (HMM) (with 8% PEG8000 and 5% DMSO) at 37° C. for 16 h. The culture media were changed daily with fresh HMM. After 8 days, the cells were harvested and HBV DNA and cccDNA levels were determined as described below.
Total and protein-free HBV DNAs were extracted from whole cell lysate using the Hirt DNA method according to a previously published protocol. For HBV cccDNA analysis, the protein-free DNA was treated with 10 units of T5 exonuclease (NEB) at 37° C. for 30 min, followed by 95° C. for 5 min, and diluted 4-fold with nuclease-free water. Next, the cccDNA was cleaned with a DNA clean and concentrator kit (ZYMO Research, Irvine, CA) and used for PCR. HBV total DNA and cccDNA were analyzed by real-time PCR using a TaqMan PCR assay. The primers and probe used to amplify HBV total DNA were: HBV total DNA forward: 5′-[…]-3′ (SEQ ID NO: 58), reverse 5′-[…]-3′ (SEQ ID NO: 59), and internal probe: 5′-FAM-[…]-TAMRA-3′ (SEQ ID NO: 60). The primers and probe used to amplify HBV cccDNA (Genotype D, subtype ayw) were: forward: 5′-[…]-3′ (SEQ ID NO: 61), reverse 5′-[…]-3′ (SEQ ID NO: 62), and internal probe 5′-FAM-[…]-TAMRA-3′ (SEQ ID NO: 63). The PCR reactions were performed in 20 μl volumes and contained 2 μl DNA. The PCR conditions were: 95° C. for 10 min, followed by 45 cycles of 95° C. for 15 s and 64° C. for 30 s. The DNA levels were determined by the […] method and values were normalized to the control group.
Sodium taurocholate cotransporting polypeptide (NTCP) is a functional receptor for human HBV. The human hepatoma cell line HepG2 is not susceptible to HBV infection due to lack of NTCP; however, HepG2 cells transfected with NTCP expression plasmids (HepG2-NTCP) are susceptible to natural HBV infection. To further characterize the inhibitory effects of the synthetic gRNA/Cas9 RNPs on HBV replication, HepG2-NTCP cells were incubated with supernatants collected from gRNA/Cas9 RNP-transfected HepDE19 cell culture (after 4 days). Genomic DNA was isolated from HepG2-NTCP cells on day 8 after HBV infection and used for the assessment of HBV replication.

HBV cccDNA = assay: HBV-infected HepG2-NTCP cells incubated with exosomes packaged with gRNA/Cas9 RNPs, HBV cccDNA; settings: delivery by engineered exosomes, 3 days (1×10^8 particles packaged with 40 μM gRNA/Cas9 RNPs)
Experimental: HepG2-NTCP cells were infected for 6 days with the supernatants of HepDE19 cells. Next, HepG2-NTCP cells were transfected for 3 days with gRNA5, gRNA9, gRNA5+gRNA9, or gRNAc RNPs (FIG. 4A) or incubated with exosomes carrying gRNA5, gRNA9, gRNA5+gRNA9, or gRNAc RNPs (1×10^8 particles packaged with 40 μM gRNA/Cas9 RNPs) (FIG. 4B), followed by measuring HBV cccDNA.
To test whether the synthetic gRNA/Cas9 can reduce newly formed HBV cccDNA in HepG2-NTCP cells, the cells with HBV particle-containing supernatants from HepDE19 cells (supernatants harvested 6 days after culture in Tet-free media) were infected. The HepG2-NTCP cells were infected with HBV particles for 6 days and then transfected with gRNA5, gRNA9, gRNA5 plus gRNA9 (in combination), or gRNAc RNPs for 3 days, followed by measuring HBV cccDNA. In another experiment, the infected HepG2-NTCP cells were incubated for 3 days with exosomes packaged with gRNA5, gRNA9, gRNA5 plus gRNA9 (in combination), or gRNAc RNPs, followed by measuring HBV cccDNA.

HBV DNA = assay: Sanger sequencing of HBV DNA fragments from treated HepDE19 cells; settings: compared with gRNAc
Experimental: Following treatment with gRNA5/Cas9+gRNA9/Cas9, or gRNAc/Cas9 RNPs, genomic DNA was isolated from HepDE19 cells using the PureLink Genomic DNA Mini Kit (Cat #K182001, Invitrogen). DNA fragments containing the gRNA target sequences were amplified by qPCR using primers flanking the cleavage sites. The PCR products were confirmed using 1% agarose gel electrophoresis and purified using a QIAquick gel extraction kit (Cat #28704, Qiagen). Sequencing of the extracted DNA fragments was performed by GENEWIZ (Chelmsford, MA) using Sanger's sequencing method. The PCR primers used for the detection of gRNA5 and gRNA9 flanking regions are described above. The sequencing readouts were aligned with the gRNAc, which was compared to the HBV sequence in the database (ayw strain, Genbank accession number: NC_003977.2). The Chromas's software (Technelysium DNA sequencing software) was used to read the nucleotide peaks, and the alignment of two or more sequences was performed using the BLAST tool from NCBI-BLAST to compare the nucleotide sequences.
Following a successful CRISPR/Cas9 cleavage, DNA damage repair pathways are initiated, and nucleotide mutagenesis occurs in the targeted genome, introducing substitution mutations. […]

Q: With GGTCTCCATGCGACGTGCAGNGG [gRNA9] as the sequence, how does the “HBV DNA in HepG2-NTCP cells” value (HBV in HepG2-NTCP cells) read?
A: Its value is “significantly lower”.

Q: What about the “HBV cccDNA in HepG2-NTCP cells” value (HBV in HepG2-NTCP cells) of the same sequence?
A: Its value is “remarkably lower”.

Q: What about the “HBV DNA in HepG2-NTCP cells” value (HBV in HepG2-NTCP cells; listed as gRNA9/Cas9) of the same sequence?
A: Its value is “significantly fewer copies”.

Q: What about the “HBV cccDNA in HepG2-NTCP cells” value (HBV in HepG2-NTCP cells; listed as gRNA9/Cas9) of the same sequence?
A: The value was “significantly fewer copies”.

Q: What about the “HBV cccDNA levels” value (HBV cccDNA) of the same sequence?
A: The value was “significantly reduced”.

Q: What about the “mutations at gRNA-targeted sites of HBV DNA (Sanger sequencing)” value (HBV DNA) of the same sequence?
A: Its value is “specific DNA indel mutations”.

Q: For “GTTATCGCTGGATGTGTCTGNGG (guide GUUAUCGCUGGAUGUGUCUGNGG; complexed with Cas9 protein, chemistry not fully specified) [gRNA5, tested as synthetic gRNA/Cas9 RNP]”, which “HBV DNA in HepG2-NTCP cells” value (HBV in HepG2-NTCP cells) is on record?
A: The value was “significantly lower”.

Q: What about the “HBV cccDNA in HepG2-NTCP cells” value (HBV in HepG2-NTCP cells) of the same sequence?
A: Its value is “remarkably lower”.

Q: And the “HBV DNA in HepG2-NTCP cells” value (HBV in HepG2-NTCP cells; listed as gRNA5/Cas9)?
A: The value was “significantly fewer copies”.

Q: And the “HBV cccDNA in HepG2-NTCP cells” value (HBV in HepG2-NTCP cells; listed as gRNA5/Cas9)?
A: The value was “significantly fewer copies”.

Q: And the “HBV cccDNA levels” value (HBV cccDNA)?
A: Its value is “significantly reduced”.

Q: And the “mutations at gRNA-targeted sites of HBV DNA (Sanger sequencing)” value (HBV DNA)?
A: Its value is “specific DNA indel mutations”.
